Measurements reported in US20230390250A1, “MODULATION OF GLUCAGON-LIKE PEPTIDE 1 AND USES THEREOF” (priority 2020, published 2023).
Entries after “also recorded” stand apart in the source; their conditions may differ. Where two headings read alike, the source gives them in different places.

Experiments:
GLUTag cells = assay: GLP-1 secretion from cultured GLUTag cells treated with LPA and/or LPAR antagonist; type: cell-based, mouse; conditions: for decrease in GLP-1 secretion / level caused by LPA (fraction): 2-2.5 h; for effect of LPAR antagonist alone on GLP-1 levels: 10 μM antagonist alone, 2 h; for rescue of LPA-inhibited GLP-1 secretion by LPAR antagonist: 10 μM antagonist plus 2.5 μM LPA
Protocol: We have grown GLUTag cells in culture to test effects of various LPA species and the LPAR 1/2/3 inhibitor Ki-16425. GLUTag cells are a well characterized L-cell line derived from a mouse intestinal tumour, which have been widely used to study the regulation of GLP-1. Briefly, GLUTag cells were grown until 80-90% confluent. Complete medium, containing fetal bovine serum, was replaced with medium containing charcoal[…] dextran treated serum, which removes lipids and hormones that could interfere with testing. […] This indicates a direct inhibitory effect of LPA at physiologically relevant levels on GLP-1 secretion by L-cells, and the ability of a commercially available LPAR antagonist to prevent this.
Experimental Protocol. Briefly, GLUTag cells were grown until 70-80% confluent. Complete medium (low glucose DMEM), containing fetal bovine serum, was replaced with medium containing charcoal-dextran treated serum, which removes lipids and hormones that could interfere with testing. Cells were then treated with medium containing either DMSO as vehicle control (0.1% v/v), 2.5 μM LPA, 10 μM LPAR antagonist, or a combination of the LPA species and inhibitors. For cells treated with both LPA plus LPAR inhibitor: cells were pre-treated with LPA for 30 minutes and then 10 uM LPAR inhibitor was added to the respective wells for a further 2 hours. For cells treated with LPA only, or vehicle only, the total treatment time was 2.5 hours. For cells treated with antagonist only, the treatment time was 2 hours.

GLP-1 = assay: Circulating GLP-1 in mice injected with LPA, with or without LPAR antagonist pre-treatment; type: in vivo; conditions: for rescue of the fall in blood GLP-1 levels caused by LPA: serum at 30 min (Examples 6, 8); for blood GLP-1 with antagonist alone versus vehicles: no LPA; for decrease in plasma GLP-1 levels after LPA injection / effect of LPA on circulating GLP-1 levels (words): 50 mg/kg i.p.; for decrease in plasma GLP-1 levels after LPA injection: 30 minutes later, n=3 (Example 3, FIG. 4); for effect of LPA on circulating GLP-1 levels (words): mice
Protocol: We injected mice i.p. with vehicle (10% DMSO in isotonic saline) or 50 mg/kg of 1-oleoyl-2-hydroxy-LPA. Half of the mice injected with LPA were pre-injected with 5 mg/kg Ki-16425 10 minutes prior to receiving LPA. Thirty minutes later, samples of blood were taken by cardiac puncture, and circulating active GLP-1 levels in plasma were analysed by enzyme linked immunosorbent assay.
(§1) The experimental protocol was as follows: • 1. Mice were administered an LPAR antagonist drug, either by oral gavage (for BMS986020, SARI 00842, AM966, AM095, or H2L51863030), or by i.p. injection (for Ki-16425, and LPA2-antagonistl) at the doses indicated in the table below. • 2. Control mice were administered only the vehicle (a 10% DMSO solution) given via the same route as the comparison drug was administered. • 3. Ten minutes later, mice were injected i.p. either with isotonic saline, or with 50 mg/kg LPA. • 4. Thirty minutes later, mice were euthanized by cervical dyslocation, and blood was collected from the heart for preparation of serum that was stored at −80C until it was analyzed for total GLP-1 concentration by ELISA assay using a GLP-1 enzyme immunoassay kit.

LPAR1 = LPAR1 (Homo sapiens, UniProt Q92633); conditions: cited from earlier work
LPAR2 = LPAR2 (Homo sapiens, UniProt Q9HBW0); conditions: cited from earlier work
LPAR3 = target: T1, LPAR3 (Homo sapiens, UniProt Q9UBY5); conditions: cited from earlier work
T1 sequence (Q9UBY5 1-353): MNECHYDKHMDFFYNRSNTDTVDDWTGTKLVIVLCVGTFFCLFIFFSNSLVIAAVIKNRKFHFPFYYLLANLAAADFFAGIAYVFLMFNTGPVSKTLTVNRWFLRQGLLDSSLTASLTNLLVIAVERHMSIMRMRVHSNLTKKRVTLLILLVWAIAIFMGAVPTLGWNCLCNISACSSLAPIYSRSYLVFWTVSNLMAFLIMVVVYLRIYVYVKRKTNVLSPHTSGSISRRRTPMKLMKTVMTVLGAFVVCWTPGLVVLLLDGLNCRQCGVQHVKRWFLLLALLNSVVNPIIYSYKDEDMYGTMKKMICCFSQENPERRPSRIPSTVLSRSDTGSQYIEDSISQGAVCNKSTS

DPP4 [1] = assay: DPP4 activity in GLUTag cells (fluorometric kit ab204722); type: cell-based, mouse; conditions: 2.5 uM 18:1-LPA
Protocol: Briefly, GLUTag cells were grown to produce the recommended quantity needed for the assay according to the manufacturer's protocol (ab204722 Dipeptidyl peptidase IV Activity Assay Kit (Fluorometric)), and then the wells were treated in media containing charcoal-stripped FBS (10%), with either nothing (no treatment control), or vehicle control (0.05% DMSO), or 2.5 uM 18:1-LPA for 30 minutes, and then the inhibitors (as indicated in the graph of FIG. 17) were added to the vehicle wells and the 2.5 uM 18:1-LPA wells at 10 uM concentrations, as indicated on the graph (FIG. 17), for an additional 2 hours. Cells were then harvested according to the manufacturer's protocol, and lysed using reagents from the kit. Charcoal-stripped FBS was used to remove lipids, including LPA, from serum. Experiments were also carried out wherein the FBS was not stripped with charcoal, and the results were not different.
According to the manufacturer, dipeptidyl peptidase IV (DPP4) Activity Assay Kit (Fluorometric) (ab204722) is an assay where DPP4 cleaves a substrate to release a quenched fluorescent group, AMC (7-Amino-4-Methyl Coumarin), which can be easily detected at Ex/Em=360/460 nm. This assay is rapid, simple, sensitive, and reliable, as well as, suitable for high throughput activity screening of DPP4. This kit detects DPP4 activity as low as 3 ρU per well.

DPP4 [2] = assay: DPP4 activity in serum of C57BI/6J mice; type: in vivo; conditions: 50 mg/kg 18:1-LPA i.p., serum 30 minutes later
Protocol: Mice were injected with 5 mg/kg Ki16425 or control (10% DMSO in isotonic saline), then injected 10 mins later with 50 mg/kg 1-18:1-LPA or saline (vehicle control), then euthanized 30 minutes later for serum collection and analysis.
as §1, with “(for” for “(for BMS986020,”, “00842” for “00842, AM966, AM095,”, “AM966),” for “H2L51863030),”, “Ki-16425)” for “Ki-16425, and LPA2-antagonistl)”, “18:1-LPA.” for “LPA.”

[3] = antagonist 30 mg/kg by gavage 10 min before 50 mg/kg 18:1-LPA i.p.

LPAR1, sequence (Q92633 whole entry, species assumed): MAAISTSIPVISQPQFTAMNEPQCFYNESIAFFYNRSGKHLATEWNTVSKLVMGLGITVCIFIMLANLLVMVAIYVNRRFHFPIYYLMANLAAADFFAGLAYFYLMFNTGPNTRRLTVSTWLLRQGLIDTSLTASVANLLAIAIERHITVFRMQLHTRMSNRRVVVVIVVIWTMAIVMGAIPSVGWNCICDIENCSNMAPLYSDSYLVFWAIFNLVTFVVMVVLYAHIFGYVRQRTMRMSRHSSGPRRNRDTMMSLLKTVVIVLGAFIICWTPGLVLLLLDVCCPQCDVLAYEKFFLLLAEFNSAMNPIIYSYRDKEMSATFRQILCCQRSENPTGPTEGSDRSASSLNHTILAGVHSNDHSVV
LPAR2, sequence (Q9HBW0 whole entry, species assumed): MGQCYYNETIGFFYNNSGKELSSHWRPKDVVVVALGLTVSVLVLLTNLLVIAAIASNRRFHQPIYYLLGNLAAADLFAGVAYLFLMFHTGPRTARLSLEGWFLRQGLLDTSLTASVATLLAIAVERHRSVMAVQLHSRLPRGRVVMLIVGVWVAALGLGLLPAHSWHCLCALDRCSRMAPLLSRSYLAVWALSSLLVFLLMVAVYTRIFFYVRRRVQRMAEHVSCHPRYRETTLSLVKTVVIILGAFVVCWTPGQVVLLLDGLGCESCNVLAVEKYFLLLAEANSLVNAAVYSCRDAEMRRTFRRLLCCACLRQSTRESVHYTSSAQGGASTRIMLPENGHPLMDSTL

CCCCCCCCCCCCCCCCCC(=O)OCC(O)COP(=O)(O)O (stereo not drawn) [1-stearoyl-2-hydroxy-LPA]
decrease in GLP-1 secretion / level caused by LPA (fraction) (GLUTag cells; 2.5 μM LPA): over 2/3

O=C(O)/C=C\C(=O)Nc1ccc(Oc2cccc(Oc3ccc(NC(=O)/C=C\C(=O)O)cc3)c2)cc1 [H2L5186303]
effect of LPAR antagonist alone on GLP-1 levels (GLUTag cells): no significant effect; also recorded: did not significantly affect
rescue of LPA-inhibited GLP-1 secretion by LPAR antagonist (GLUTag cells): partially rescued
rescue of the fall in blood GLP-1 levels caused by LPA (GLP-1; [3]): partially rescued; also recorded: partial rescue
blood GLP-1 with antagonist alone versus vehicles (GLP-1; antagonist 30 mg/kg by gavage): slightly, but significantly lower
Ki (LPAR1): 27 µM
IC50 (LPAR1; read-out: IC50 for LPAR1): 27.4 µM
IC50 (LPAR2): 0.0089 µM
Ki (LPAR2): 0.0089 µM
Ki (LPAR3): ~5 µM
IC50 (LPAR3; read-out: IC50 for LPAR3): 4.5 µM

CCCCC/C=C\C/C=C\CCCCCCCC(=O)OCC(O)COP(=O)(O)O (stereo not drawn) [18:2-LPA, 1-linoleoyl-2-hydroxy-LPA]
effect of LPA on GLP-1 secretion (GLUTag cells; 2.5 μM LPA): decreases GLP-1 secretion
decrease in GLP-1 secretion / level caused by LPA (fraction) (GLUTag cells; 2.5 μM LPA): > 2/3
decrease in GLP-1 secretion / level caused by LPA (fraction) (GLUTag cells; 2.5 μM LPA, listed as 1-linoleoyl-2-hydroxy-LPA): over 2/3

Cc1csc2c(N[C@@H](C)CN3CCN(S(=O)(=O)c4ccc(Cl)c(Cl)c4)CC3)ncnc12 [LPA2-antagonist 1]
effect of LPAR antagonist alone on GLP-1 levels (GLUTag cells): no significant effect
effect of LPAR antagonist alone on GLP-1 levels (GLUTag cells; listed as LPA2-antagonist): did not significantly reduce
rescue of LPA-inhibited GLP-1 secretion by LPAR antagonist (GLUTag cells): complete rescue
rescue of LPA-inhibited GLP-1 secretion by LPAR antagonist (GLUTag cells; listed as LPA2-antagonist): significantly increased
rescue of the fall in blood GLP-1 levels caused by LPA (GLP-1; antagonist 5 mg/kg i.p. 10 min before 50 mg/kg 18:1-LPA i.p.): lack of rescue
rescue of the fall in blood GLP-1 levels caused by LPA (GLP-1; antagonist 5 mg/kg i.p. 10 min before 50 mg/kg 18:1-LPA i.p., listed as LPA2-antagonist): did not significantly rescue
blood GLP-1 with antagonist alone versus vehicles (GLP-1; antagonist 5 mg/kg i.p.): slightly, but significantly lower
IC50 (LPAR1; read-out: IC50 for LPAR1): > 50 µM
IC50 (LPAR1; read-out: IC50 with LPAR1): > 50 µM
IC50 (LPAR2): 0.017 µM
IC50 (LPAR3; read-out: IC50 for LPAR3): > 50 µM
IC50 (LPAR3; read-out: IC50 with LPAR3): > 50 µM

CCCCCCCCCCCCCCCC(=O)OCC(O)COP(=O)(O)O (stereo not drawn) [1-palmitoyl-2-hydroxy-LPA]
decrease in GLP-1 secretion / level caused by LPA (fraction) (GLUTag cells; 2.5 μM LPA): over 2/3

Cc1noc(-c2ccc(-c3ccc(C4(C(=O)O)CC4)cc3)cc2)c1NC(=O)O[C@H](C)c1ccccc1 [BMS-986020]
effect of LPAR antagonist alone on GLP-1 levels (GLUTag cells): no significant effect
rescue of LPA-inhibited GLP-1 secretion by LPAR antagonist (GLUTag cells): partially rescued
rescue of LPA-inhibited GLP-1 secretion by LPAR antagonist (GLUTag cells; listed as BMS986020): did significantly restore GLP-1 secretion
rescue of the fall in blood GLP-1 levels caused by LPA (GLP-1; [3]): did not significantly rescue
blood GLP-1 with antagonist alone versus vehicles (GLP-1; antagonist 30 mg/kg by gavage): indistinguishable from mice treated only with the vehicles
Ki (LPAR1): < 0.3 µM
IC50 (LPAR1; read-out: IC50 for LPAR1): < 0.3 µM

CCCCCCCC/C=C\CCCCCCCC(=O)OC[C@@H](O)COP(=O)(O)O [18:1-LPA, 1-oleoyl-2-hydroxy-LPA]
decrease in GLP-1 secretion / level caused by LPA (fraction) (GLUTag cells; 2.5 μM LPA): > 2/3
decrease in GLP-1 secretion / level caused by LPA (fraction) (GLUTag cells; 2.5 μM LPA, listed as 1-oleoyl-2-hydroxy-LPA): over 2/3
decrease in plasma GLP-1 levels after LPA injection (GLP-1): ~60%
decrease in plasma GLP-1 levels after LPA injection (GLP-1; listed as 1-18:1-LPA): over 60%
effect of LPA on circulating GLP-1 levels (words) (GLP-1): decreased
effect of LPA on circulating GLP-1 levels (words) (GLP-1; listed as 1-oleoyl-2-hydroxy-LPA): decreases circulating GLP-1 levels
effect of LPA on DPP4 activity in GLUTag cells (DPP4 [1]): did not significantly reduce
effect of LPA on DPP4 activity in mouse serum (DPP4 [2]): did not affect
